# Patent US8357700B2, “2,3-disubstituted piperidine orexin receptor antagonists” (Merck Sharp & Dohme Corp., priority 2008, dated 2013)
# Columns and labels:
# [1] = molecular target: T1, orexin-1 receptor (OX1R) (UniProt O43613); assay: radioligand binding assay, membranes from CHO cells expressing OX1 receptor; conditions: CHO cell membranes
# T1 sequence (O43613 1-425): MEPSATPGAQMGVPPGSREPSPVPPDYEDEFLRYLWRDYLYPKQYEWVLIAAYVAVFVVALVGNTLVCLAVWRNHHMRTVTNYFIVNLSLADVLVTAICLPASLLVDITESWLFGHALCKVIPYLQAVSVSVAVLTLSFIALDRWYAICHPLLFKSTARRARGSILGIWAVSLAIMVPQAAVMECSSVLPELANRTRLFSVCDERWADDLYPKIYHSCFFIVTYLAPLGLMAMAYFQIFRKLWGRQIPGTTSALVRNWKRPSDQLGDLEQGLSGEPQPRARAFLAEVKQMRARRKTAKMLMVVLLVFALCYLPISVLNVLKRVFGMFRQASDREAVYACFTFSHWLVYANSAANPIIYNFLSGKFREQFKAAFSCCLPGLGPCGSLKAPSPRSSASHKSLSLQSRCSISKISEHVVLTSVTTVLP
# Experimental: (§1) The utility of the compounds in accordance with the present invention as orexin receptor OX1R and/or OX2R antagonists may be readily determined without undue experimentation by methodology well known in the art, including the “FLIPR Ca^2+ Flux Assay” (Okumura et al., Biochem. Biophys. Res. Comm. 280:976-981, 2001). In a typical experiment the OX1 and OX2 receptor antagonistic activity of the compounds of the present invention was determined in accordance with the following experimental method. For intracellular calcium measurements, Chinese hamster ovary (CHO) cells expressing the rat OX1 receptor or the human OX2 receptor, are grown in Iscove's modified DMEM containing 2 mM L-glutamine, […], 1% hypoxanthine-thymidine supplement, 100 U/ml penicillin, 100 ug/ml streptomycin and 10% heat-inactivated fetal calf serum (FCS). The cells are seeded at 20,000 cells/well into Becton-Dickinson black 384-well clear bottom sterile plates coated with poly-D-lysine. All reagents were from GIBCO-Invitrogen Corp. The seeded plates are incubated overnight at 37° C. and 5% CO2. Ala-6,12 human orexin-A as the agonist is prepared as a 1 mM stock solution in 1% bovine serum albumin (BSA) and diluted in assay buffer (HBSS containing 20 mM HEPES, 0.1% BSA and 2.5 mM probenecid, pH7.4) for use in the assay at a final concentration of 70 pM. Test compounds are prepared as 10 mM stock solution in DMSO, then diluted in 384-well plates, first in DMSO, then assay buffer. On the day of the assay, cells are washed 3 times with 100 ul assay buffer and then incubated for 60 min (37° C., 5% CO2) in 60 ul assay buffer containing 1 uM Fluo-4AM ester, 0.02% pluronic acid, and 1% BSA. The dye loading solution is then aspirated and cells are washed 3 times with 100 ul assay buffer. 30 ul of that same buffer is left in each well. Within the Fluorescent Imaging Plate Reader (FLIPR, Molecular Devices), test compounds are added to the plate in a volume of 25 ul, incubated for 5 min and finally 25 ul of agonist is added. Fluorescence is measured for each well at 1 second intervals for 5 minutes and the height of each fluorescence peak is compared to the height of the fluorescence peak induced by 70 pM Ala-6,12 orexin-A with buffer in place of antagonist. For each antagonist, IC50 value (the concentration of compound needed to inhibit 50% of the agonist response) is determined. Alternatively, compound potency can be assessed by a radioligand binding assay (described in Bergman et. al. Bioorg. Med. Chem. Lett. 2008, 18, 1425-1430) in which the inhibition constant (Ki) is determined in membranes prepared from CHO cells expressing either the orexin-1 (OX1) or orexin-2 (OX2) receptor. The intrinsic orexin receptor antagonist activity of a compound which may be used in the present invention may be determined by these assays.
# [2] = molecular target: T2, orexin-2 receptor (OX2R) (Homo sapiens, UniProt O43614); assay: radioligand binding assay, membranes from CHO cells expressing OX2 receptor; conditions: CHO cell membranes
# T2 construct: expressed in transfected cells; host or cells: CHO cells (membranes)
# T2 sequence (O43614 1-444): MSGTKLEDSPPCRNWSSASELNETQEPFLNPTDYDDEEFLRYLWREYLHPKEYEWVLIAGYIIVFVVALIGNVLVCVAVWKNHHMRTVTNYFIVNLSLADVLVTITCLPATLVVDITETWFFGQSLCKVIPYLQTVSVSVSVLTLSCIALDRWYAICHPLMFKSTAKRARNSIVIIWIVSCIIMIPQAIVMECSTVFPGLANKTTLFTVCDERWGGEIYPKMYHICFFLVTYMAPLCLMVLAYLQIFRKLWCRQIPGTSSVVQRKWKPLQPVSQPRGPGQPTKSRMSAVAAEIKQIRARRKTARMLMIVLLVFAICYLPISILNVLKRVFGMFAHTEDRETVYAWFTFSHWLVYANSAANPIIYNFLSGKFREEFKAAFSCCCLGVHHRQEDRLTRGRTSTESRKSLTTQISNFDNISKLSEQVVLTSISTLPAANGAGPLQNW
# Experimental: as §1
SMILES,Ki [1] [nM],Ki [2] [nM]
"Cc1ccc(-n2nccn2)c(C(=O)N2CCC[C@@H](COc3ccc(Br)cn3)[C@@H]2C)c1 (stereo in doubt) [A-7, 5-bromo-2-({2-methyl-1-[5-methyl-2-(2H-1,2,3-triazol-2-yl)benzoyl]piperidin-3-yl}methoxy)pyridine]",1.1,6.4
"Cc1ccc(-n2nccn2)c(C(=O)N2CCC[C@@H](COc3nccc4ccccc34)[C@@H]2C)c1 (stereo in doubt) [A-8, 1-({2-methyl-1-[5-methyl-2-(2H-1,2,3-triazol-2-yl)benzoyl]piperidin-3-yl}methoxy)isoquinoline]",0.5,2.1
Cc1ccc(-n2nccn2)c(C(=O)N2CCC[C@@H](COc3ccccn3)[C@@H]2C)c1 [A-6],1,39

# Next, values leading:
Ki [1] [nM],Ki [2] [nM],SMILES
2.7,7.5,"Cc1ccc(-n2nccn2)c(C(=O)N2CCC[C@@H](COc3cccc(Br)n3)[C@@H]2C)c1 (stereo in doubt) [A-9, 2-bromo-6-({2-methyl-1-[5-methyl-2-(2H-1,2,3-triazol-2-yl)benzoyl]piperidin-3-yl}methoxy)pyridine]"
0.6,2.6,"Cc1ccc(-n2nccn2)c(C(=O)N2CCC[C@@H](COc3ccnc4ccccc34)[C@@H]2C)c1 (stereo in doubt) [A-10, 4-({2-methyl-1-[5-methyl-2-(2H-1,2,3-triazol-2-yl)benzoyl]piperidin-3-yl}methoxy)quinoline]"
